Tests used:
[1] = Spontaneous (uncatalyzed, background) hydrolysis; format: physicochemical; conditions: for Spon. (spontaneous hydrolysis): pH 8.0, 50 mM phosphate, time (h): 17 2, 18 24, 20 0.33, 5 0.33, 22 3.5
In short: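 Background (uncatalyzed) hydrolysis of ester substrates measured in 50 mM phosphate buffer, pH 8.0, without antibody, as percentage of reactant consumed over the stated period. Quantified by C18 HPLC (acetonitrile/water with 0.1% trichloroacetic acid); Compounds 5 and 20 followed by fluorescence (ex 355 nm, em 455 nm).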

Monoclonal Receptor 37G2 = experiment: Kinetics of hydrolysis by receptor 37G2; format: biochemical, mouse
Text: (§1) Reaction kinetics were studied using three reactant ligands as substrates for monoclonal receptors 37G2 and 22F5. Data from initial rates were consistent with Michaelis-Menten reaction mechanism for a usual enzyme-substrate system. Initial rates were followed using at 271 nm using a U.V.-visible spectorphotometer for Compound 17, and a fluorescence spectrometer for Compounds 5 and 20, using an excitation wavelength of 355 nm and an emission wavelength of 455 nm for both compounds.
Lineweaver-Burke plots for the catalyzed hydrolysis of Compounds 17, 5 and 20 obtained in the presence and absence of Compound 12i as inhibitor were prepared as discussed for FIG. 4. In particular, Compound 17 was present at concentrations of 1-16 uM with inhibitor concentrations of 100 and 300 nanomolar (nM). Compound 5 was present at concentrations of 1-10 uM with inhibitor concentrations of 100 and 200 nM. Compound 20 was present at concentrations of 2-20 uM with inhibitor concentrations of 25 and 100 nM. […]
(§2) 50 mM phosphate buffer at a pH value of 8.0. The reactant ligand was
(§3) dissolved in dioxane and admixed in the amounts discussed above. Two
(§4) milliliters of reaction solution were utilized as was a dioxane
concentration of 2 percent by volume. Assays with Compound 17 as reac tan
ligand utilized 500 nanomolar receptor (based on a molecular weight of
150,000 daltons) in the above buffer, using the reactant ligand dissolved
in dioxane and a total dioxane concentration of 2 percent by volume.

[2] = system: anti-Compound 4i antibodies; experiment: Fluorescence esterolytic assay of twelve anti-Compound 4i gamma-globulins with Compound 5; format: biochemical, mouse; conditions: two of twelve anti-Compound 4i antibodies, first 5 minutes of incubation
Method: (§5) A Perkin-Elmer LS-5 fluorescence spectrometer was operated at a fixed wavelength, using 355 nanometers (nm) for excitation and measuring the emission at 455 nm. A stock solution of the coumarin ester 5 was prepared in dioxane and was diluted to the desired concentrations in Tris-HCl (50 mM, pH 7) or sodium phosphate (50 mM, pH 4-9).
Reactions were run at 23 degrees C and were initiated by the addition of an aliquot of antibody solution (1 mg/ml) to substrate solutions to provide a final protein concentration of 100 nM. Final fluorescence values were determined by hydrolysis of the substrate with pig liver esterase. The observed reaction rate was corrected for spontaneous hydrolysis. Reaction kinetics were studied by measuring initial rates under pseudo-first order conditions. Active protein concentration was extrapolated from fluorescence values at the end of the reaction. The kinetic parameters were obtained by fitting the data to a hyperbolic curve and from double reciprocal plots. Inhibition constants were determined from the Lineweaver-Burk plot data with at least five inhibitor concentrations. […]
The fluorescence change upon hydrolysis of coumarin esters is easily detectable at nanomolar concentrations.
The practical range of pH for the assay is limited by the rapid spontaneous rate of hydrolysis of an ester Compound 5 above pH 8.0. […] Any change in fluorescence above background was noted. […]

P2 50D8 = experiment: Catalytic hydrolysis by receptor P2 50D8; format: biochemical, mouse
Method: (§6) Two further catalytic monoclonal receptors were similarly prepared by another fusion using Compound 2i linked to an antigenic carrier as immunogen. Those two catalytic receptor molecules and their hybridomas were designated "P2 50D8" and "P2 57G4".
(§7) In one study, twenty-eight monoclonal anti-hapten antibodies to phosphonate 2i from two separate fusion experiments were assayed. […] Antibodies to Compound 4i as hapten were assayed in the same manner. Twelve gamma-globulins were screened as described above. Compound 5 is homologous only in the acyl portion of this larger hapten; however, all but three of these cross-reacted with smaller phosphonate 2 in an ELISA assay as described herein. For two of these there was observed a fluorescence change, occurring in the first 5 minutes of incubation, which corresponds to about 50 percent of that for complete hydrolysis. The background rate of hydrolysis was reestablished after this initial reaction leveled off.

P2 57G4 = experiment: Catalytic hydrolysis by receptor P2 57G4; format: biochemical, mouse
Method: as §6, §7

[3] = system: twenty-eight monoclonal anti-hapten antibodies to phosphonate 2i; experiment: Fluorescence assay of twenty-eight anti-phosphonate 2i antibodies with Compound 5; format: biochemical, mouse; conditions: pH 7.2
Method: as §5
Reactions were run at 23 degrees C and were initiated by the addition of an aliquot of antibody solution (1 mg/ml) to substrate solutions to provide a final protein concentration of 100 nM. Final fluorescence values were determined by hydrolysis of the substrate with pig liver esterase. The observed reaction rate was corrected for spontaneous hydrolysis. […] Active protein concentration was extrapolated from fluorescence values at the end of the reaction. […] Inhibition constants were determined from the Lineweaver-Burk plot data with at least five inhibitor concentrations. […]
The practical range of pH for the assay is limited by the rapid spontaneous rate of hydrolysis of an ester Compound 5 above pH 8.0. […] Any change in fluorescence above background was noted.
In one study, twenty-eight monoclonal anti-hapten antibodies to phosphonate 2i from two separate fusion experiments were assayed. […] For two of these there was observed a fluorescence change, occurring in the first 5 minutes of incubation, which corresponds to about 50 percent of that for complete hydrolysis. […]

Monoclonal Receptor 22F5 = experiment: Kinetics of hydrolysis by receptor 22F5; format: biochemical, mouse
Text: as §1
Lineweaver-Burke plots for the catalyzed hydrolysis of Compounds 17, 5 and 20 obtained in the presence and absence of Compound 12i as inhibitor were prepared as discussed for FIG. 4. In particular, Compound 17 was present at concentrations of 1-16 uM with inhibitor concentrations of 100 and 300 nanomolar (nM). Compound 5 was present at concentrations of 1-10 uM with inhibitor concentrations of 100 and 200 nM. Compound 20 was present at concentrations of 2-20 uM with inhibitor concentrations of 25 and 100 nM.
*Fluorescence assays using Compounds 20 and 5 were carried out in a
PerkinElmer fluorescence spectrophotometer (moded LS5; Oakbrook, IL) usin
200 nanomolar receptor (based on a molecular weight of 150,000 daltons) i
as §2, §3, §4
concentration of 2 percent by volume. […]

SMILES	Spon. (spontaneous hydrolysis), pH 7.2 ([1]; pH 7.2, 50 mM phosphate, 2 h)	Spon. (spontaneous hydrolysis) [1]	Km (Monoclonal Receptor 37G2; 50 mM phosphate pH 8.0, 500 nM receptor, 2% dioxane, figure = Km × 10^6) [µM]	kcat (Monoclonal Receptor 37G2; pH 8.0) [s⁻¹]	Vmax (Monoclonal Receptor 37G2; pH 8.0, 500 nM receptor, figure = Vmax × 10^9) [µM/min]	spontaneous rate of hydrolysis ([1]; above pH 8.0)	fluorescence change as share of complete hydrolysis [2]	catalytic hydrolysis by P2 50D8 (P2 50D8)	catalytic hydrolysis by P2 57G4 (P2 57G4)	reactivity with Compound 5 in fluorescence assay [3]	Km (Monoclonal Receptor 22F5; 50 mM phosphate pH 8.0, 200 nM receptor, 2% dioxane, figure = Km × 10^6) [µM]	kcat (Monoclonal Receptor 22F5; pH 8.0) [s⁻¹]	Vmax (Monoclonal Receptor 22F5; pH 8.0, 200 nM receptor, figure = Vmax × 10^9) [µM/min]
CC(=O)Nc1ccc(CC(=O)Oc2cccc3ccccc23)cc1 [Compound 17]	4 percentage of reactant ligand	7 percentage of reactant ligand	15	0.0016	0.042	–	–	–	–	–	–	–	–
O=C(Cc1ccc(NC(=O)C(F)(F)F)cc1)Oc1ccc2ccc(=O)oc2c1 [Compound 5]	–	5 percentage of reactant ligand	–	–	–	rapid	about 50%	capable of catalytically hydrolyzing	capable of catalytically hydrolyzing	None of these were reactive	1.4	0.0022	0.0912

— patent US5126258A (priority 1988, dated 1992)
